Laboratory results published in the supplement of paper PMC5662764.
± gives the standard deviation of the averaged measurements.

Columns and labels:
Assay in all cases: normalised growth rate inhibition (GR value) relative to DMSO control (GR (1 = untreated growth, 0 = cytostasis, <0 = cytotoxic)); higher = less growth inhibition
Details in all cases: 72 h
MDAMB231 = test system: MDAMB231
Procedure: (§1)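 Breast cancer cell lines (BT-20, Hs 578T, MCF 10A, MCF7, MDA-MB-231, SK-BR-3) were plated in 384-well plates and treated 24 h later with drugs at six concentrations (0.04-10 µM). Viable cells were counted by Hoechst/dead-cell-stain imaging at 0 and 72 h. Counts were normalised to DMSO controls on the same plate to give the relative cell count and the growth-rate inhibition (GR) value; technical plate triplicates were averaged for each biological replicate.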

MCF10A = test system: MCF10A
Procedure: as §1

BT20 = test system: BT20
Procedure: as §1

MCF7 = test system: MCF7
Procedure: as §1

SKBR3 = test system: SKBR3
Procedure: as §1

HS578T = test system: HS578T
Procedure: as §1

| SMILES | normalised growth rate inhibition (MDAMB231; 0.04 µM) | normalised growth rate inhibition (MDAMB231; 0.12 µM) | normalised growth rate inhibition (MDAMB231; 0.37 µM) | normalised growth rate inhibition (MDAMB231; 1.11 µM) | normalised growth rate inhibition (MDAMB231; 3.33 µM) | normalised growth rate inhibition (MDAMB231; 10 µM) | normalised growth rate inhibition (MCF10A; 0.04 µM) | normalised growth rate inhibition (MCF10A; 0.12 µM) | normalised growth rate inhibition (MCF10A; 0.37 µM) | normalised growth rate inhibition (MCF10A; 1.11 µM) | normalised growth rate inhibition (MCF10A; 3.33 µM) | normalised growth rate inhibition (MCF10A; 10 µM) | normalised growth rate inhibition (BT20; 0.04 µM) | normalised growth rate inhibition (BT20; 0.12 µM) | normalised growth rate inhibition (BT20; 0.37 µM) | normalised growth rate inhibition (BT20; 1.11 µM) | normalised growth rate inhibition (BT20; 3.33 µM) | normalised growth rate inhibition (BT20; 10 µM) | normalised growth rate inhibition (MCF7; 0.04 µM) | normalised growth rate inhibition (MCF7; 0.12 µM) | normalised growth rate inhibition (MCF7; 0.37 µM) | normalised growth rate inhibition (MCF7; 1.11 µM) | normalised growth rate inhibition (MCF7; 3.33 µM) | normalised growth rate inhibition (MCF7; 10 µM) | normalised growth rate inhibition (SKBR3; 0.04 µM) | normalised growth rate inhibition (SKBR3; 0.12 µM) | normalised growth rate inhibition (SKBR3; 0.37 µM) | normalised growth rate inhibition (SKBR3; 1.11 µM) | normalised growth rate inhibition (SKBR3; 3.33 µM) | normalised growth rate inhibition (SKBR3; 10 µM) | normalised growth rate inhibition (HS578T; 0.04 µM) | normalised growth rate inhibition (HS578T; 0.12 µM) | normalised growth rate inhibition (HS578T; 0.37 µM) | normalised growth rate inhibition (HS578T; 1.11 µM) | normalised growth rate inhibition (HS578T; 3.33 µM) | normalised growth rate inhibition (HS578T; 10 µM) |
| --- | --- | --- | --- | --- | --- | --- | --- | --- | --- | --- | --- | --- | --- | --- | --- | --- | --- | --- | --- | --- | --- | --- | --- | --- | --- | --- | --- | --- | --- | --- | --- | --- | --- | --- | --- | --- |
| CS(=O)(=O)N1CCN(Cc2cc3nc(-c4cccc5[nH]ncc45)nc(N4CCOCC4)c3s2)CC1 [GDC-0941] | 0.784 ± 0.092 | 0.797 ± 0.069 | 0.715 ± 0.011 | 0.676 ± 0.056 | 0.644 ± 0.053 | 0.372 ± 0.1 | 0.869 ± 0.15 | 0.792 ± 0.18 | 0.625 ± 0.21 | 0.427 ± 0.14 | 0.289 ± 0.087 | 0.102 ± 0.038 | 0.717 ± 0.053 | 0.689 ± 0.067 | 0.502 ± 0.17 | 0.258 ± 0.19 | 0.0678 ± 0.098 | -0.056 ± 0.052 | 0.331 ± 0.1 | 0.176 ± 0.079 | 0.0196 ± 0.047 | -0.00416 ± 0.0071 | -0.0358 ± 0.013 | -0.081 ± 0.069 | 0.384 ± 0.11 | 0.283 ± 0.088 | 0.131 ± 0.099 | 0.0555 ± 0.16 | 0.00405 ± 0.15 | -0.0817 ± 0.19 | 0.779 ± 0.032 | 0.675 ± 0.031 | 0.568 ± 0.088 | 0.466 ± 0.1 | 0.408 ± 0.096 | 0.263 ± 0.077 |
| CCC(=O)N1CCN(c2ccc(-n3c(=O)ccc4cnc5ccc(-c6cnc7ccccc7c6)cc5c43)cc2C(F)(F)F)CC1 [torin-1] | 0.464 ± 0.038 | 0.339 ± 0.053 | 0.243 ± 0.073 | 0.178 ± 0.051 | 0.116 ± 0.055 | -0.0316 ± 0.1 | 0.529 ± 0.13 | 0.304 ± 0.042 | 0.198 ± 0.017 | 0.161 ± 0.026 | 0.156 ± 0.006 | 0.0917 ± 0.027 | 0.271 ± 0.076 | 0.11 ± 0.081 | 0.0128 ± 0.054 | -0.0682 ± 0.033 | -0.152 ± 0.025 | -0.251 ± 0.026 | 0.166 ± 0.044 | 0.119 ± 0.024 | 0.082 ± 0.038 | 0.0141 ± 0.045 | -0.0224 ± 0.046 | -0.068 ± 0.033 | 0.0209 ± 0.19 | -0.0144 ± 0.18 | -0.0642 ± 0.15 | -0.11 ± 0.18 | -0.161 ± 0.17 | -0.218 ± 0.19 | 0.267 ± 0.069 | 0.213 ± 0.075 | 0.163 ± 0.086 | 0.0994 ± 0.083 | 0.0438 ± 0.084 | -0.093 ± 0.14 |
| Cc1cnc(-c2cnc(NCCNc3ccc(C#N)cn3)nc2-c2ccc(Cl)cc2Cl)[nH]1 | 0.895 ± 0.041 | 0.823 ± 0.039 | 0.831 ± 0.021 | 0.827 ± 0.061 | 0.831 ± 0.024 | 0.762 ± 0.035 | 1.01 ± 0.032 | 1.01 ± 0.041 | 0.997 ± 0.07 | 0.952 ± 0.12 | 0.9 ± 0.12 | 0.799 ± 0.13 | 0.915 ± 0.11 | 0.932 ± 0.082 | 0.959 ± 0.087 | 1 ± 0.093 | 1.01 ± 0.069 | 0.875 ± 0.16 | 0.844 ± 0.082 | 0.786 ± 0.085 | 0.776 ± 0.095 | 0.586 ± 0.16 | 0.585 ± 0.1 | 0.222 ± 0.061 | 0.731 ± 0.12 | 0.725 ± 0.17 | 0.786 ± 0.16 | 0.749 ± 0.17 | 0.753 ± 0.17 | 0.465 ± 0.2 | 0.97 ± 0.014 | 0.9636 ± 0.0048 | 0.962 ± 0.018 | 0.911 ± 0.059 | 0.907 ± 0.018 | 0.525 ± 0.14 |
| O=C1c2c(O)ccc(O)c2C(=O)c2c(NCCNCCO)ccc(NCCNCCO)c21 [mitoxantrone] | -0.0551 ± 0.058 | -0.0634 ± 0.075 | -0.137 ± 0.1 | -0.222 ± 0.15 | -0.327 ± 0.24 | -0.48 ± 0.21 | 0.228 ± 0.057 | 0.0237 ± 0.034 | -0.00408 ± 0.025 | -0.0492 ± 0.02 | -0.186 ± 0.1 | -0.142 ± 0.092 | 0.252 ± 0.12 | 0.0494 ± 0.084 | -0.0983 ± 0.12 | -0.205 ± 0.14 | -0.243 ± 0.12 | -0.461 ± 0.18 | 0.0337 ± 0.042 | 0.0173 ± 0.037 | 0.0313 ± 0.056 | -0.141 ± 0.11 | -0.348 ± 0.039 | -0.59 ± 0.15 | -0.0581 ± 0.17 | -0.0745 ± 0.18 | -0.0948 ± 0.2 | -0.164 ± 0.17 | -0.353 ± 0.13 | -0.707 ± 0.16 | 0.0811 ± 0.1 | -0.0173 ± 0.041 | -0.0612 ± 0.043 | -0.207 ± 0.087 | -0.394 ± 0.11 | -0.511 ± 0.17 |
| CC(C)CC(=O)Nc1n[nH]c2c1CN(C(=O)C1CCN(C)CC1)C2(C)C | 0.304 ± 0.16 | 0.211 ± 0.072 | 0.0329 ± 0.056 | -0.0471 ± 0.091 | -0.13 ± 0.13 | -0.262 ± 0.2 | 0.322 ± 0.09 | 0.228 ± 0.053 | 0.116 ± 0.063 | 0.0382 ± 0.073 | -0.0512 ± 0.066 | -0.187 ± 0.19 | 0.52 ± 0.085 | 0.436 ± 0.047 | 0.276 ± 0.097 | 0.109 ± 0.12 | -0.0127 ± 0.079 | -0.219 ± 0.12 | 0.207 ± 0.15 | 0.143 ± 0.1 | 0.0348 ± 0.063 | -0.0125 ± 0.053 | -0.102 ± 0.12 | -0.328 ± 0.029 | 0.145 ± 0.15 | 0.0952 ± 0.085 | 0.0136 ± 0.079 | -0.0334 ± 0.073 | -0.0738 ± 0.074 | -0.305 ± 0.21 | 0.497 ± 0.057 | 0.427 ± 0.073 | 0.227 ± 0.11 | 0.0474 ± 0.12 | -0.035 ± 0.096 | -0.157 ± 0.11 |
| Cc1[nH]c(/C=C2\C(=O)Nc3ccc(S(=O)(=O)N(C)c4cccc(Cl)c4)cc32)c(C)c1C(=O)N1CCN(C)CC1 | 1.07 ± 0.065 | 1.01 ± 0.04 | 1 ± 0.057 | 0.954 ± 0.058 | 0.847 ± 0.076 | 0.0987 ± 0.12 | 1 ± 0.019 | 0.976 ± 0.02 | 0.941 ± 0.02 | 0.867 ± 0.01 | 0.742 ± 0.022 | 0.474 ± 0.032 | 1.06 ± 0.037 | 1.04 ± 0.017 | 1 ± 0.029 | 0.922 ± 0.015 | 0.819 ± 0.011 | 0.0654 ± 0.082 | 1.1 ± 0.046 | 1.05 ± 0.075 | 1.01 ± 0.073 | 0.858 ± 0.037 | 0.712 ± 0.045 | 0.0989 ± 0.046 | 1.14 ± 0.075 | 1.08 ± 0.085 | 1.11 ± 0.057 | 0.996 ± 0.058 | 0.923 ± 0.032 | 0.00625 ± 0.024 | 1.02 ± 0.014 | 0.992 ± 0.013 | 0.9492 ± 0.0032 | 0.883 ± 0.025 | 0.818 ± 0.03 | 0.159 ± 0.083 |
| CN(c1ncccc1CNc1nc(Nc2ccc3c(c2)CC(=O)N3)ncc1C(F)(F)F)S(C)(=O)=O | 0.897 ± 0.027 | 0.825 ± 0.081 | 0.741 ± 0.075 | 0.577 ± 0.14 | 0.166 ± 0.14 | -0.196 ± 0.22 | 0.894 ± 0.02 | 0.814 ± 0.017 | 0.66 ± 0.014 | 0.4 ± 0.098 | 0.0782 ± 0.016 | -0.191 ± 0.2 | 0.921 ± 0.011 | 0.879 ± 0.031 | 0.815 ± 0.069 | 0.583 ± 0.13 | 0.201 ± 0.15 | -0.212 ± 0.071 | 0.8557 ± 0.0043 | 0.759 ± 0.054 | 0.529 ± 0.066 | 0.251 ± 0.094 | -0.0743 ± 0.044 | -0.309 ± 0.069 | 1.05 ± 0.051 | 0.984 ± 0.095 | 0.704 ± 0.099 | 0.198 ± 0.053 | -0.0632 ± 0.084 | -0.254 ± 0.25 | 0.897 ± 0.02 | 0.812 ± 0.035 | 0.735 ± 0.034 | 0.62 ± 0.042 | 0.438 ± 0.048 | -0.0953 ± 0.11 |
| O=C(NOC[C@H](O)CO)c1ccc(F)c(F)c1Nc1ccc(I)cc1F | 0.605 ± 0.043 | 0.413 ± 0.029 | 0.264 ± 0.033 | 0.0779 ± 0.1 | -0.0448 ± 0.12 | -0.0975 ± 0.13 | 0.263 ± 0.072 | 0.184 ± 0.072 | 0.175 ± 0.077 | 0.134 ± 0.083 | 0.0915 ± 0.085 | 0.0555 ± 0.074 | 0.907 ± 0.095 | 0.864 ± 0.059 | 0.838 ± 0.1 | 0.708 ± 0.14 | 0.565 ± 0.086 | 0.439 ± 0.064 | 0.608 ± 0.044 | 0.539 ± 0.02 | 0.503 ± 0.05 | 0.442 ± 0.039 | 0.254 ± 0.06 | 0.0358 ± 0.091 | 0.953 ± 0.066 | 0.902 ± 0.057 | 0.913 ± 0.049 | 0.728 ± 0.027 | 0.445 ± 0.05 | 0.196 ± 0.14 | 0.513 ± 0.088 | 0.402 ± 0.055 | 0.328 ± 0.023 | 0.247 ± 0.061 | 0.119 ± 0.078 | 0.0542 ± 0.11 |
